Assay results reported in patent US20220119354A1, “DIAMINO-SUBSTITUTED PYRIDINES AND PYRIMIDINES AS HERBICIDES” (FMC Corporation, priority 2019, published 2022).

Experiments:
Format in all cases: in vivo
[1] = tested on: foxtail, giant (Setaria faberii); experiment: Test A preemergence, giant foxtail; conditions: 0 to 100 scale, 0 is no effect, 100 is complete control
In short: (§1)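 Visual injury scored against untreated controls about 10 d after treatment, scale 0 = no effect to 100 = complete control. Compounds, formulated with surfactant in a non-phytotoxic solvent, went on as directed soil spray preemergence or onto 2–10 cm, one- to two-leaf plants postemergence; loam–sand soil, greenhouse.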

[2] = tested on: pigweed (Amaranthus retroflexus); experiment: Test A preemergence, pigweed; conditions: 0 to 100 scale, 0 is no effect, 100 is complete control
In short: as §1

[3] = tested on: foxtail, giant (Setaria faberii); experiment: Test A postemergence, giant foxtail; conditions: 0 to 100 scale, 0 no effect, 100 complete control
In short: as §1

rice (Oryza sativa) = experiment: Test B flooded paddy test, rice; conditions: Flood, 250 g ai/ha, applied to paddy water, 2-leaf stage, visual evaluation after 13 to 15 d
In short: (§2)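 Rating: 0 = no effect, 100 = complete control, visual, relative to untreated plants. Conditions: 2-leaf stage, 3 cm flood kept constant, compound put directly into water, 13–15 d greenhouse.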

[4] = tested on: ragweed (common ragweed, Ambrosia elatior); experiment: Test A postemergence, ragweed; conditions: 0 to 100 scale, 0 no effect, 100 complete control
In short: as §1

[5] = tested on: ryegrass, Italian (Lolium multiflorum); experiment: Test A preemergence, Italian ryegrass; conditions: 0 to 100 scale, 0 is no effect, 100 is complete control
In short: as §1

[6] = tested on: wheat (Triticum aestivum); experiment: Test A postemergence, wheat; conditions: 0 to 100 scale, 0 no effect, 100 complete control
In short: as §1

[7] = tested on: barnyardgrass (Echinochloa crus-galli); experiment: Test B flooded paddy test, barnyardgrass; conditions: Flood, 250 g ai/ha, applied to paddy water, 2-leaf stage, visual evaluation after 13 to 15 d
In short: as §2

[8] = tested on: ryegrass, Italian (Lolium multiflorum); experiment: Test A postemergence, Italian ryegrass; conditions: 0 to 100 scale, 0 no effect, 100 complete control
In short: as §1

[9] = tested on: galium (catchweed bedstraw, Galium aparine); experiment: Test A postemergence, galium; conditions: 0 to 100 scale, 0 no effect, 100 complete control
In short: as §1

kochia (Kochia scoparia) [10] = experiment: Test A preemergence, kochia; conditions: 0 to 100 scale, 0 is no effect, 100 is complete control
In short: as §1

[11] = tested on: barnyardgrass (Echinochloa crus-galli); experiment: Test A preemergence, barnyardgrass; conditions: 0 to 100 scale, 0 is no effect, 100 is complete control
In short: as §1

kochia (Kochia scoparia) [12] = experiment: Test A postemergence, kochia; conditions: 0 to 100 scale, 0 no effect, 100 complete control
In short: as §1

[13] = tested on: pigweed (Amaranthus retroflexus); experiment: Test A postemergence, pigweed; conditions: 0 to 100 scale, 0 no effect, 100 complete control
In short: as §1

[14] = tested on: barnyardgrass (Echinochloa crus-galli); experiment: Test A postemergence, barnyardgrass; conditions: 0 to 100 scale, 0 no effect, 100 complete control
In short: as §1

corn (Zea mays) = experiment: Test A postemergence, corn; conditions: 0 to 100 scale, 0 no effect, 100 complete control
In short: as §1

[15] = tested on: blackgrass (Alopecurus myosuroides); experiment: Test A postemergence, blackgrass; conditions: 0 to 100 scale, 0 no effect, 100 complete control
In short: as §1

[16] = tested on: ducksalad (Heteranthera limosa); experiment: Test B flooded paddy test, ducksalad; conditions: Flood, 250 g ai/ha, applied to paddy water, 2-leaf stage, visual evaluation after 13 to 15 d
In short: as §2

[17] = tested on: sedge, umbrella (small-flower umbrella sedge, Cyperus difformis); experiment: Test B flooded paddy test, umbrella sedge; conditions: Flood, 250 g ai/ha, applied to paddy water, 2-leaf stage, visual evaluation after 13 to 15 d
In short: as §2

[18] = tested on: ragweed (common ragweed, Ambrosia elatior); experiment: Test A preemergence, ragweed; conditions: 0 to 100 scale, 0 is no effect, 100 is complete control
In short: as §1

Compound	Foxtail, Giant plant response rating ([1]; 125 g ai/ha)	Foxtail, Giant plant response rating ([1]; 500 g ai/ha)	Pigweed plant response rating ([2]; 125 g ai/ha)	Pigweed plant response rating ([2]; 500 g ai/ha)	Plant response rating, Foxtail, Giant ([3]; 125 g ai/ha)	Plant response rating, Foxtail, Giant ([3]; 500 g ai/ha)	Plant response rating, Rice (0 to 100 scale, 0 is no effect, 100 is complete control) (rice (Oryza sativa))	Plant response rating, Ragweed ([4]; 125 g ai/ha)	Plant response rating, Ragweed ([4]; 500 g ai/ha)	Ryegrass, Italian plant response rating ([5]; 125 g ai/ha)	Ryegrass, Italian plant response rating ([5]; 500 g ai/ha)	Plant response rating, Wheat ([6]; 125 g ai/ha)	Plant response rating, Wheat ([6]; 500 g ai/ha)	Plant response rating, Barnyardgrass (0 to 100 scale, 0 is no effect, 100 is complete control) [7]	Plant response rating, Ryegrass, Italian ([8]; 125 g ai/ha)	Plant response rating, Ryegrass, Italian ([8]; 500 g ai/ha)	Plant response rating, Galium ([9]; 125 g ai/ha)	Plant response rating, Galium ([9]; 500 g ai/ha)	Kochia plant response rating (kochia (Kochia scoparia) [10]; 125 g ai/ha)	Kochia plant response rating (kochia (Kochia scoparia) [10]; 500 g ai/ha)	further results
Nc1nc(NC(c2cc3ccccc3s2)C2CC2)ncc1C(F)(F)F (racemic) [Compound 94]	70	100	60	100	60	90	10	50	70	50	90	0	30	35	50	90	40	80	60	90	Barnyardgrass plant response rating ([11]; 125 g ai/ha): 0; Barnyardgrass plant response rating ([11]; 500 g ai/ha): 90; Plant response rating, Kochia (kochia (Kochia scoparia) [12]; 125 g ai/ha): 70; Plant response rating, Kochia (kochia (Kochia scoparia) [12]; 500 g ai/ha): 90; Plant response rating, Pigweed ([13]; 125 g ai/ha): 90; Plant response rating, Pigweed ([13]; 500 g ai/ha): 100; Plant response rating, Barnyardgrass ([14]; 125 g ai/ha): 40; Plant response rating, Barnyardgrass ([14]; 500 g ai/ha): 90; Plant response rating, Corn (corn (Zea mays); 125 g ai/ha): 0; Plant response rating, Corn (corn (Zea mays); 500 g ai/ha): 20; Plant response rating, Blackgrass ([15]; 125 g ai/ha): 0; Plant response rating, Blackgrass ([15]; 500 g ai/ha): 0; Plant response rating, Ducksalad (0 to 100 scale, 0 is no effect, 100 is complete control) [16]: 40; Plant response rating, Sedge, Umbrella (0 to 100 scale, 0 is no effect, 100 is complete control) [17]: 45; Ragweed plant response rating ([18]; 125 g ai/ha): 50; Ragweed plant response rating ([18]; 500 g ai/ha): 90
Nc1nc(NC(c2coc3ccccc23)C2CC2)ncc1C(F)(F)F (racemic) [Compound 95]	90	100	90	100	50	90	0	60	80	40	60	0	30	35	50	100	80	80	80	90	Barnyardgrass plant response rating ([11]; 125 g ai/ha): 80; Barnyardgrass plant response rating ([11]; 500 g ai/ha): 100; Plant response rating, Kochia (kochia (Kochia scoparia) [12]; 125 g ai/ha): 80; Plant response rating, Kochia (kochia (Kochia scoparia) [12]; 500 g ai/ha): 90; Plant response rating, Pigweed ([13]; 125 g ai/ha): 100; Plant response rating, Pigweed ([13]; 500 g ai/ha): 100; Plant response rating, Barnyardgrass ([14]; 125 g ai/ha): 0; Plant response rating, Barnyardgrass ([14]; 500 g ai/ha): 70; Plant response rating, Corn (corn (Zea mays); 125 g ai/ha): 10; Plant response rating, Corn (corn (Zea mays); 500 g ai/ha): 30; Plant response rating, Blackgrass ([15]; 125 g ai/ha): 0; Plant response rating, Blackgrass ([15]; 500 g ai/ha): 70; Plant response rating, Ducksalad (0 to 100 scale, 0 is no effect, 100 is complete control) [16]: 55; Plant response rating, Sedge, Umbrella (0 to 100 scale, 0 is no effect, 100 is complete control) [17]: 70; Ragweed plant response rating ([18]; 125 g ai/ha): 50; Ragweed plant response rating ([18]; 500 g ai/ha): 100
